≈ marks a conversion by molar mass, not a printed value. Calls of active or inactive are those of the source. The rule behind the calls is not given here.

The first test deals with Escherichia coli. As to the kind of experiment: microbe, parasite or virus in culture. In kind it is functional. The following applies: GR501, 20 h.
Turning to `O=C(NO)c1ccccc1OCC(O)Cn1cc(-c2ccccc2)nn1` (centres undefined), the MIC worked out at 18 µg/mL (≈ 50.8 µM).

In turn, `C=CCOc1cc(OCc2ccc(Br)cc2)ccc1C(=O)NO` displayed an MIC of 800 µg/mL (≈ 2120 µM).

`C=CCOc1ccc(OCC=C)c(C(=O)NO)c1`: the MIC is 150 µg/mL (≈ 602 µM).

In turn, `C#CCOc1ccc(OCC=C)c(C(=O)NO)c1` showed an MIC of 400 µg/mL (≈ 1620 µM).

On to `C=CCOc1ccc(OCc2ccccc2)cc1C(=O)NO`, for which the MIC was found to be 800 µg/mL (≈ 2670 µM).

As to `C=CCOc1ccc(C(=O)NO)c(OCC=C)c1`, the MIC turned out to be 400 µg/mL (≈ 1600 µM).

`O=C(NO)c1ccc2ccccc2c1OCc1ccc(Cl)c(Cl)c1` showed an MIC above 200 µg/mL.

Turning to `C=CCOc1ccccc1C(=O)NO`, the MIC was 10 µg/mL (≈ 51.8 µM).

`C=CCOc1ccc(OCc2cc(Cl)ccc2Cl)cc1C(=O)NO` came in with an MIC of 400 µg/mL (≈ 1090 µM).

For the compound `C=CCOc1ccc(OCc2ccc(Br)cc2)cc1C(=O)NO`, the MIC amounted to 800 µg/mL (≈ 2120 µM).

With `CCCCCCOc1c(C(=O)NO)ccc2ccccc12`, the MIC is above 200 µg/mL.

The subject of a further test is Escherichia coli.
Assay: not given
Settings: not given
Regarding `C=CCOc1cc(OCc2cc(Cl)ccc2Cl)ccc1C(=O)NO`, the MIC result was “inactive”.

`O=C(NO)c1ccc2ccccc2c1OCc1cccc(Cl)c1`: the MIC result is “inactive”.

As to `C=CCOc1c(OCc2ccccc2)cccc1C(=O)NO`, the MIC result is “inactive”.

With `C=CCOc1cccc(C(=O)NO)c1OCC=C`, the MIC entry was “inactive”.

`O=C(NO)c1ccccc1OCc1ccc(Cl)c(Cl)c1`: the MIC result is “inactive”.

Take `O=C(NO)c1ccccc1OCc1cccc(Cl)c1`: the MIC result is “inactive”.

The test system of a further test is Escherichia coli. The test can be described thus: microbe, parasite or virus in culture. In kind it is functional. The following applies: GR501, 20 h. This is another data set of the same source.
For `O=C(NO)c1ccccc1OCC(O)Cn1cc(-c2ccccc2)nn1` (centres undefined), the MIC came out at 1 µg/mL (≈ 2.82 µM).

Take `C=CCOc1ccccc1C(=O)NO`: the MIC is 0.5 µg/mL (≈ 2.59 µM).

The values above are taken from ChEMBL document CHEMBL3217442, “Synthesis and bioevaluation of aryl hydroxamates distinguishing between NAD+ and ATP-dependent DNA ligases” (Medchemcomm, 2012).
